In publication PMC7396997, “Discovery of 4-Anilinoquinolinylchalcone Derivatives as Potential NRF2 Activators” (Molecules, 2020):
“And” between values parts separate entries of the source, which are not always exact repeats. Equal entries are not always repeated.

Columns and labels:
NRF2 [1] = assay: ARE-driven luciferase reporter assay (NRF2 activity) in HaCaT/ARE stable cells; format: cell-based, human
Text: In this study, we used a stable ARE-driven reporter system to screen the potential NRF2 activators.

HaCaT/ARE cells = assay: Cell viability (resazurin) in the reporter screen
Description: Immortalized human keratinocytes HaCaT were cultured in the Dulbecco’s modified Eagle’s medium (DMEM; Gibco BRL, Grand Island, NY, USA) with 10% heat-inactivated fetal bovine serum (HyClone, Logan, UT, USA), penicillin (100 U/mL), and streptomycin (100 μg/mL) in a humidified incubator with 5% CO2. HaCaT/ARE stable cells were grown in DMEM supplemented with 100 μg/mL of hygromycin.
HaCaT/ARE stable cells were seeded (1 × 10^4 cells/well) in a 96 well plate, then were treated with indicated concentrations of compounds for 18 h. At the assay time point, resazurin (Cayman Chemical, Ann Arbor, MI, USA) was added to a final concentration of 0.1 mg/mL and further incubated for 4 h at 37 °C. Fluorescence of the reduced resazurin (ex/em: 530 nm/590 nm) was measured from the culture supernatant by using a Synergy HT Multi-Mode Reader (BioTek, Winooski, VT, USA) to determine cell viability. The cells were then harvested for luciferase activity measurements according to the manufacturer’s protocol (Promega Corporation, Madison, WI, USA). Relative luciferase activity was calculated by normalizing luciferase activity to cell viability, and DMSO solvent control was used as 100% activity.

NRF2 mRNA = assay: qRT-PCR of NRF2 mRNA in HaCaT cells; format: cell-based, human; conditions: 18 h, real-time PCR
Description: (§1) To further evaluate the effect of compound 13b on NRF2 activation, the mRNA level of NRF2 target genes were determined by real-time PCR.
(§2) RNA was prepared by using the TRIzol Reagent (Thermo Scientific, Madison, WI, USA) and was reverse transcribed into cDNA using a TOOLs Easy Fast RT Kit (TOOLs Biotechnology, New Taipei City, Taiwan). PCR was performed on an ABI StepOne Plus System (Applied Biosystems, Foster City, CA, USA) using the KAPA SYBR® FAST qPCR Master Mix (2X) Kit (Sigma-Aldrich, St. Louis, MO, USA). The mRNA level was normalized using the glyceraldehyde 3-phosphate dehydrogenase (GAPDH) mRNA level as the standard. The following primers were used: NRF2 forward: 5′-[…] and reverse: 5′-[…]; HO1 forward: 5′-GCCAGCAACAAAGTGCAAG and reverse: 5′-[…]; NQO1 forward: 5′-[…] and reverse: 5′-[…]; GCLC forward: 5′-[…] and reverse: 5′-[…]; G6PD forward: 5′-CAACATCGCCTGCGTTA and reverse: 5′-CTTGACCTTCTCATCACGG; and GAPDH forward: 5′-[…] and reverse: 5′-[…].
(§3) Figure 5 The compound 13b increased the NRF2 expression at the protein level in the HaCaT cell. (A) HaCaT cells were treated with indicated concentrations of compound 13b for 8 h. Protein expression of NRF2 was determined by Western blot. (B) HaCaT cells were treated with indicated concentrations of 13b for 18 h. Total RNA was isolated and submitted to reverse transcription and real-time PCR for the detection of the NRF2 mRNA level.

HaCaT cells = assay: Cytotoxicity, 72 h resazurin cell viability assay; format: cell-based, human; conditions: HaCaT cells, 72 h; read-out: CC50
Description: Cells were seeded in a 96-well plate contained 100 μL culture medium in triplicate and treated with several compounds for 72 h. At the assay time point, resazurin (Cayman Chemical) was added and further incubated for 4 h at 37 °C. Fluorescence of the reduced resazurin was measured as described previously.
Figure 3 The cytotoxicity of 12b, 13b, and 14b in HaCaT cells. HaCaT cells were treated with indicated concentrations of these three compounds for 72 h. Cell viability was determined by a resazurin assay as described in the Materials and Methods section. Data presented as mean ± SD from three independent experiments.

[2] = tested on: NRF2 target genes (HO1, G6PD, GCLC); assay: qRT-PCR of NRF2 target genes in HaCaT cells; format: cell-based, human; conditions: 18 h, real-time PCR
Description: as §1, §2
Figure 4 Compound 13b increased the expression of NRF2 target genes in the HaCaT cell. HaCaT cells were treated with indicated concentrations of 13b for 18 h. Total RNA was isolated and submitted to reverse transcription and real-time PCR for the detection of the NRF2 target genes including HO1 (A), GLCL (B), G6PD (C), and NQO1 (D). Data are expressed as normalized mRNA level and presented as mean ± SD from three independent experiments. The asterisk (*) indicates a significant difference between 13b treated groups and control group (* p< 0.05, *** p< 0.001, one-way ANOVA).

NRF2 [3] = assay: Western blot of NRF2 protein in HaCaT cells; format: cell-based, human; conditions: 8 h
Description: as §1
Cells were washed with PBS and harvested with RIPA lysis buffer (50 mM Tris (pH 7.5), 150 mM NaCl, 1% Tx-100) supplemented with protease and phosphatase inhibitors (1 mM PMSF, 10 μg/mL leupeptin, 50 μg/mL TLCK, 50 μg/mL TPCK, 1 μg/mL aprotinin, 1 mM NaF, 5 mM NaPPi, and 10 mM Na3VO4). The cell lysates were cleared via 10 min spins at 13,000 rpm, 4 °C. Protein concentrations were determined by a Bio-Rad Protein Assay (Bio-Rad, Hercules, CA, USA). Samples corresponded to 20 μg of protein were used for Western blot according to our previous publication. The following antibodies were used: anti-NRF2 (GeneTex, Irvine, CA, USA) and anti-GAPDH (Abcam, Cambridge, MA, USA).
as §3

## (E)-3-{4-[(4-acetylphenyl)amino]quinolin-2-yl}-1-(4-fluorophenyl)prop-2-en-1-one [13b]
NRF2 [1]; 10 μM, 24 h (b12; method b59 says 18 h), luciferase normalised to cell viability, DMSO control = 100%
  % of Relative NRF2 Activity in HaCaT Cell: 2205% and 2205.2 ± 144.9%
NRF2 [1]; HaCaT/ARE cells, 18 h, dose-response, read-out: EC50 of NRF2 promoter activity
  EC50: 1950 nM
HaCaT/ARE cells; 10 µM
  survival rate: 96%
HaCaT/ARE cells; 10 μM, in % (unit assumed)
  Cell Viability: 95.7 ± 1.8
NRF2 mRNA
  mRNA of NRF2: without altering
HaCaT cells
  CC50: > 100000 nM
[2]
  G6PD mRNA expression: significantly increased
  GCLC mRNA expression: significantly increased
  HO1 mRNA expression: significantly increased
NRF2 [3]
  expression of NRF2 protein: effectively enhance
